Legend:
IL-17A : IL-17RA binding = molecular target: T1, IL-17A : IL-17RA binding (Homo sapiens, UniProt Q16552, K93Q); experiment: IL-17A(FLAG-tagged):IL-17RA(His-tagged) binding disruption Eu-HTRF assay, Protocol 1; conditions: FLAG-IL-17A 2.5 nM at 2x final concentration; average if tested more than once
T1 construct: Name: IL-17A-Flag
Description: An antibody directed against the FLAG tag of IL-17A (SEQ ID NO: 1) is labeled with the HTRF donor chromophore (Europium-cryptate). IL-17A is present as a dimer that is “locked into” this quaternary structure due to the formation of loop-spanning […] disulfide bridges. The construct of IL-17RA used in the assay excludes the […] portion of the receptor and is fused to a C-terminal 10×His tag (SEQ ID NO:2). An antibody directed against the His tag of the IL-17RA chimera is labeled with the HTRF acceptor chromophore (“D2”). The fluorescence-resonance energy transfer (FRET) depends on the vicinity of the donor chromophore to the acceptor, and interruption of the binding between the IL-17A and IL-17RA causes the reduction/loss of FRET. Therefore, this assay allows to evaluate the compound effect on the binding IL-17A and IL-17RA by monitoring the fluorescence intensity of donor vs acceptor. The assay was run using either Protocol 1 or Protocol 2 as described below.
Protocol 1. 40 nl of 2-fold serial diluted compound solution for total 22 dilution points is added into each well of a 1536-well, white, low-volume, non-binding plate (Greiner #782904), then 2 μl of FLAG tagged IL-17A at 2× final concentration (2.5 nM) in solution of PBS+0.01% Triton-X100 is added to each well. The assay plate is briefly centrifuged then incubated for 1 h at rt. A mixed solution is prepared containing 2×5 nM 10HIS×IL-17RA, 2×2.5 nM Eu-anti-FLAG (CISBIO), 2×5 nM D2-anti-HIS (CISBIO) in PBS+0.01% Triton-X100+200 mM Potassium Fluoride (Sigma 60238) and 2 μl of mix is added to each well of the assay plate. The plate is briefly centrifuged then incubated for 2 h at rt. The HTRF intensities at the wavelength of donor (620 nm) and acceptor (665 nm) are measured using BMG Pherastar. The ratio between intensities at two wavelengths is calculated and plotted against the compound concentration and the data is fitted to a one-site competition model to yield IC50 of the compound.

[1] = system: IL-17A-induced G-CSF production in human normal keratinocyte (NHK); experiment: NHK assay: IL-17A-induced G-CSF production in normal human keratinocytes; type: cell-based; conditions: 24 h, IL-17A 5 ng/mL, average if tested more than once
Experimental: IL-17A acts directly on keratinocytes through binding to dimeric receptor IL-17RA/RC and drives the production of a number of inflammatory mediators known to be elevated in psoriasis lesional tissue. IL-17A small molecule inhibitors that block the IL-17A to interact with IL-17R would inhibit the IL-17A signaling in its targeted cells such as keratinocytes. The compound functional activity is evaluated for its impact on IL-17A-induced G-CSF production in human normal keratinocyte (NHK).
Adult normal human keratinocytes are cultured in keratinocyte growth medium (Lonza) in a flask till reaching ˜90% confluence, then cells are transferred to a 384-well plate at density of 3000-4000 cell/well. Recombinant human IL-17A (Gibco PHC9174) is pre-incubated with titrated compound or DMSO for 1 h at rt then added to the cell culture plate. The final concentration of IL-17A is 5 ng/mL and DMSO is 0.2%, in the culture containing 5% FBS. Cells are cultured/treated for 24 h at 37° C. Supernatants are collected and G-CSF production is measured through HTRF technology using Human G-CSF Kit (CisBio). G-CSF concentration was extrapolated from the standard curve and IC50 is determined using GraphPad Prism. Cell viability is also evaluated using CellTiter-Glo kit (Promega) and effect of compound on cell viability is compared to DMSO control.

T1 sequence (Q16552 with tags, fused parts or gaps K93Q): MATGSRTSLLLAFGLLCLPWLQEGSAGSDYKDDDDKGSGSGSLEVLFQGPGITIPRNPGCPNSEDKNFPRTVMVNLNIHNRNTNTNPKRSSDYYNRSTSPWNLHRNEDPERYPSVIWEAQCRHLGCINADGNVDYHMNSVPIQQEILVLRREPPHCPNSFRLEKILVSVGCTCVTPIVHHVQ

Structure (SMILES)	IC50 (IL-17A : IL-17RA binding)	IC50 ([1]; Homo sapiens, Keratinocyte)	IC50 [1]
Cc1nonc1C(=O)N[C@H](c1nc2ccc([C@H](NC(=O)CC3CC(F)(F)C3)C3CC3)cc2[nH]1)[C@@H]1CCCCO1 (relative stereo) [Example 248, N—((R*)-(6-((R)-Cyclopropyl(2-(3,3-difluorocyclobutyl)acetamido)methyl)-1H-benzo[d]imidazol-2-yl)((S*)-tetrahydro-2H-pyran-2-yl)methyl)-4-methyl-1,2,5-oxadiazole-3-carboxamide]	50 to 100 nM	> 100 nM	–
Cc1nonc1C(=O)N[C@@H](c1nc2ccc([C@H](NC(=O)CC3CC(F)(F)C3)C3CC3)cc2[nH]1)[C@@H]1CCCCO1 (relative stereo) [Example 249, N—((S*)-(6-((R)-Cyclopropyl(2-(3,3-difluorocyclobutyl)acetamido)methyl)-1H-benzo[d]imidazol-2-yl)((S*)-tetrahydro-2H-pyran-2-yl)methyl)-4-methyl-1,2,5-oxadiazole-3-carboxamide]	> 100 nM	> 100 nM	–
CC(C)n1nccc1C(=O)N[C@H](c1nc2ccc([C@H](NC(=O)CC3CC(F)(F)C3)C3CC3)cc2[nH]1)[C@@H]1CCCCO1 (relative stereo) [Example 250, N—((R*)-(6-((R)-Cyclopropyl(2-(3,3-difluorocyclobutyl)acetamido)methyl)-1H-benzo[d]imidazol-2-yl)((S*)-tetrahydro-2H-pyran-2-yl)methyl)-1-isopropyl-1H-pyrazole-5-carboxamide]	50 to 100 nM	50 to 100 nM	–
CC(C)n1nccc1C(=O)N[C@@H](c1nc2ccc([C@H](NC(=O)CC3CC(F)(F)C3)C3CC3)cc2[nH]1)[C@@H]1CCCCO1 (relative stereo) [Example 251, N—((S*)-(6-((R)-Cyclopropyl(2-(3,3-difluorocyclobutyl)acetamido)methyl)-1H-benzo[d]imidazol-2-yl)((S*)-tetrahydro-2H-pyran-2-yl)methyl)-1-isopropyl-1H-pyrazole-5-carboxamide]	> 100 nM	> 100 nM	–
Cn1nccc1C(=O)N[C@H](c1nc2cc(C(NC(=O)CCC(F)(F)F)C3CCC3)ccc2[nH]1)C1CCC(F)(F)CC1 (single isomer, unassigned) [Example 42, N—((S)-(5-((S*)-Cyclobutyl(4,4,4-trifluorobutanamido)methyl)-1H-benzo[d]imidazol-2-yl)(4,4-difluorocyclohexyl)methyl)-1-methyl-1H-pyrazole-5-carboxamide]	> 100 nM	< 50 nM	–
Cn1nccc1C(=O)N[C@H](c1nc2cc(C(NC(=O)CCC(F)(F)F)C3CCC3)ccc2[nH]1)C1CCC(F)(F)CC1 (single isomer, unassigned) [Example 43, N—((S)-(5-((R*)-Cyclobutyl(4,4,4-trifluorobutanamido)methyl)-1H-benzo[d]imidazol-2-yl)(4,4-difluorocyclohexyl)methyl)-1-methyl-1H-pyrazole-5-carboxamide]	> 100 nM	–	> 100 nM
CC(C)C(NC(=O)CCC(F)(F)F)c1ccc2[nH]c([C@@H](NC(=O)c3ccnn3C)C3CCC(F)(F)CC3)nc2c1 (single isomer, unassigned) [Example 44, N—((S)-(4,4-Difluorocyclohexyl)(5-((S*)-2-methyl-1-(4,4,4-trifluorobutanamido)propyl)-1H-benzo[d]imidazol-2-yl)methyl)-1-methyl-1H-pyrazole-5-carboxamide]	> 100 nM	> 100 nM	–
CC(C)C(NC(=O)CCC(F)(F)F)c1ccc2[nH]c([C@@H](NC(=O)c3ccnn3C)C3CCC(F)(F)CC3)nc2c1 (single isomer, unassigned) [Example 45, N—((S)-(4,4-Difluorocyclohexyl)(5-((R*)-2-methyl-1-(4,4,4-trifluorobutanamido)propyl)-1H-benzo[d]imidazol-2-yl)methyl)-1-methyl-1H-pyrazole-5-carboxamide]	> 100 nM	–	50 to 100 nM
Cn1nccc1C(=O)N[C@H](c1nc2cc(C(CC3CCC3)NC(=O)CCC(F)(F)F)ccc2[nH]1)C1CCC(F)(F)CC1 (single isomer, unassigned) [Example 46, N—((S)-(5-((S*)-2-Cyclobutyl-1-(4,4,4-trifluorobutanamido)ethyl)-1H-benzo[d]imidazol-2-yl)(4,4-difluorocyclohexyl)methyl)-1-methyl-1H-pyrazole-5-carboxamide]	> 100 nM	> 100 nM	–
Cn1nccc1C(=O)N[C@H](c1nc2cc(C(CC3CCC3)NC(=O)CCC(F)(F)F)ccc2[nH]1)C1CCC(F)(F)CC1 (single isomer, unassigned) [Example 47, N—((S)-(5-((R*)-2-Cyclobutyl-1-(4,4,4-trifluorobutanamido)ethyl)-1H-benzo[d]imidazol-2-yl)(4,4-difluorocyclohexyl)methyl)-1-methyl-1H-pyrazole-5-carboxamide]	> 100 nM	–	< 50 nM
CC(C)CC(NC(=O)CCC(F)(F)F)c1ccc2[nH]c([C@@H](NC(=O)c3ccnn3C)C3CCC(F)(F)CC3)nc2c1 (single isomer, unassigned) [Example 48, N—((S)-(4,4-Difluorocyclohexyl)(5-((S*)-3-methyl-1-(4,4,4-trifluorobutanamido)butyl)-1H-benzo[d]imidazol-2-yl)methyl)-1-methyl-1H-pyrazole-5-carboxamide]	> 100 nM	> 100 nM	–
CC(C)CC(NC(=O)CCC(F)(F)F)c1ccc2[nH]c([C@@H](NC(=O)c3ccnn3C)C3CCC(F)(F)CC3)nc2c1 (single isomer, unassigned) [Example 49, N—((S)-(4,4-Difluorocyclohexyl)(5-((R*)-3-methyl-1-(4,4,4-trifluorobutanamido)butyl)-1H-benzo[d]imidazol-2-yl)methyl)-1-methyl-1H-pyrazole-5-carboxamide]	> 100 nM	–	< 50 nM
CCCC(NC(=O)CCC(F)(F)F)c1ccc2[nH]c([C@@H](NC(=O)c3ccnn3C)C3CCC(F)(F)CC3)nc2c1 (single isomer, unassigned) [Example 50, N—((S)-(4,4-Difluorocyclohexyl)(5-((S*)-1-(4,4,4-trifluorobutanamido)butyl)-1H-benzo[d]imidazol-2-yl)methyl)-1-methyl-1H-pyrazole-5-carboxamide]	> 100 nM	> 100 nM	–
CCCC(NC(=O)CCC(F)(F)F)c1ccc2[nH]c([C@@H](NC(=O)c3ccnn3C)C3CCC(F)(F)CC3)nc2c1 (single isomer, unassigned) [Example 51, N—((S)-(4,4-Difluorocyclohexyl)(5-((R*)-1-(4,4,4-trifluorobutanamido)butyl)-1H-benzo[d]imidazol-2-yl)methyl)-1-methyl-1H-pyrazole-5-carboxamide]	> 100 nM	–	50 to 100 nM
CCC(NC(=O)CCC(F)(F)F)c1ccc2[nH]c([C@@H](NC(=O)c3ccnn3C)C3CCC(F)(F)CC3)nc2c1 (single isomer, unassigned) [Example 52, N—((S)-(4,4-Difluorocyclohexyl)(5-((S*)-1-(4,4,4-trifluorobutanamido)propyl)-1H-benzo[d]imidazol-2-yl)methyl)-1-methyl-1H-pyrazole-5-carboxamide]	> 100 nM	> 100 nM	–
CCC(NC(=O)CCC(F)(F)F)c1ccc2[nH]c([C@@H](NC(=O)c3ccnn3C)C3CCC(F)(F)CC3)nc2c1 (single isomer, unassigned) [Example 53, N—((S)-(4,4-Difluorocyclohexyl)(5-((R*)-1-(4,4,4-trifluorobutanamido)propyl)-1H-benzo[d]imidazol-2-yl)methyl)-1-methyl-1H-pyrazole-5-carboxamide]	> 100 nM	–	50 to 100 nM

— US20240376085A1 (Janssen Pharmaceutica NV, priority 2021, published 2024)
